The results in this text go back to patent publication US5244661A, “Process for producing a polyene antibiotic” (Ajinomoto Company, Inc., priority 1989, dated 1993).

SMILES strings stand for the structures. Values after ≈ are worked out from the molar mass of the structure shown.

Assay [1] deals with Candida albicans ATCC 10231. The assay can be described thus: minimum growth inhibitory concentration (MIC) against Candida albicans ATCC 10231. Format: cell-based.
Assay [2] has as its system Saccharomyces ubran ATCC 9080. Briefly: minimum growth inhibitory concentration (MIC) against Saccharomyces ubran ATCC 9080. Format: cell-based. The note with it: Table 3.

With `COC(=O)C1C(O)CC2(O)CC(O)CC(O)CC(O)CC(O)CC(=O)CC(O)CC(=O)OC(C(C)CCC(O)CC(=O)c3ccc(N)cc3)C(C)/C=C/C=C/C=C/C=C/C=C/C=C/C=C/C(O[C@H]3O[C@@H](C)[C@H](O)[C@@H](N)[C@H]3O)CC1O2` (stereo partly drawn) [partricin B methyl ester], the “minimum growth inhibitory concentration (MIC)” value in assay [1] (Example 7) stood at 0.52 µg/mL. In general, MIC refers to the least concentration at which growth counts as inhibited. A low value points to greater potency. For `CC1/C=C/C=C/C=C/C=C/C=C/C=C/C=C/C(O[C@H]2O[C@@H](C)[C@H](O)[C@@H](N)[C@H]2O)CC2OC(O)(CC(O)CC(O)CC(O)CC(O)CC(=O)CC(O)CC(=O)OC1C(C)CCC(O)CC(=O)c1ccc(N)cc1)CC(O)C2C(=O)O` (stereo partly drawn) [Partricin B, partricin B], the MIC in assay [1] (Table 3) and in assay [2] was 0.04 µg/mL (≈ 0.0359 µM) each time.
